Consider three compounds from patent publication US6623933B1 (priority 1999, dated 2003).

One test deals with T1, GluR1 AMPA receptor (Rattus norvegicus, UniProt P19490).
T1 construct: expressed in transfected cells; host or cells: Xenopus oocytes injected with GluR1 cRNA
The experiment in a line: Kainate-induced currents, Xenopus oocytes injected with GluR1 cRNA. In kind it is cell-based. The source says:
(§1) Plasmids were obtained from the following individuals: Dr. Suzanne Zukin (Albert Einstein College of Medicine, Bronx, N.Y.), NR1100; Dr. Shigetada Nakanishi (Kyoto University Faculty of Medicine, Kyoto, Japan), NR2A; Dr. Stephen Heinemann (Salk Institute, San Diego, Calif.), GluR1 (flop), GluR3 (flop), and GluR6. Plasmids were linearized with BamH1 (NR1100), XhoI (NR2A, GluR1, GluR3) or XbaI (GluR6) prior to in vitro transcription with T3 (GluR1, GluR3, GluR6) or T7 (NR1100, NR2A) RNA polymerase using the Message Machine kit (Ambion, Austin, Tex.). […] RNA solutions (50-70 nl) were injected into oocytes for delivery of NR1100 (5 ng), NR1100:NR2A (1:10 ng), GluR1 (5 ng). GluR3 (5 ng), or GluR6 (20 ng). Oocytes were incubated in ND96 at 18-20° C. for 3-7 days prior to electrophysiological recording.
(§2) Steroid solutions were prepared as 70-100 mM frozen stocks in dimethyl sulfoxide (DMSO). The final DMSO concentration of all recording solutions was between 0.1% to 0.5% and was constant within an experiment.
(§3) Perfusion control and data acquisition were carried out using an automated oocyte electrophysiology workstation that was developed for the rapid collection of concentration-response data and real-time waveform analysis (Yaghoubi et al., Soc. Neurosci. Abstr. 20: 1109 (1995)). This system is implemented on a Macintosh IIci computer (Apple Computer, Cupertino, Calif.) equipped with MacA-DIOS II data acquisition and control hardware (GW Instruments, Somerville, Mass.). Drug application is controlled by the computer through a series of valves, using custom-written software based on the SuperScope II development environment, improving the efficiency and reproducibility of data collection. Experiments were carried out using an Axoclamp-2A voltage clamp amplifier (Axon Instruments, Foster City, Calif.) in two-electrode voltage clamp mode. Intracellular microelectrodes (1-3 MΩ) were filled with 3 M KCl. […] Membrane potential was clamped at −60 to −70 mV and stepped to −100 mV at the start of data acquisition unless otherwise stated. […] Current and voltage recordings were digitized at 100 Hz for analysis. GluR6 injected oocytes were treated for 10 min with 10 μg/ml concanavalin A to prevent fast desensitization.
(§4) Results are expressed as mean±S.E.M. Statistical comparisons were made using Student's t-test.

Another test concerns the target T2, GluR3 AMPA receptor (Rattus norvegicus, UniProt P19492).
T2 construct: expressed in transfected cells; host or cells: Xenopus oocytes injected with GluR3 cRNA
The experiment in a line: Kainate-induced currents, Xenopus oocytes injected with GluR3 cRNA. Format: cell-based.
Excerpt: as §1, §2, §3, §4

Another test concerns the target T3, GluR6 kainate receptor (Rattus norvegicus, UniProt P42260).
T3 construct: expressed in transfected cells; host or cells: Xenopus oocytes injected with GluR6 cRNA (concanavalin A treated)
The experiment in a line: Kainate-induced currents, Xenopus oocytes injected with GluR6 cRNA. In kind it is cell-based.
Excerpt: as §1, §2, §3, §4

Test [1] addresses T4, NR1100+NR2A NMDA receptor (Rattus norvegicus, UniProt P35439+Q00959).
T4 construct: expressed in transfected cells; host or cells: Xenopus oocytes co-injected with NR1100 and NR2A cRNA
The experiment in a line: NMDA-induced currents, Xenopus oocytes, Example 1. The following applies: for Percentage change in NMDA response: NR1100 + NR2A, steroid 100 μM, −100 mV. Format: cell-based.
Excerpt: as §1, §2, §3, §4

The target of the next test is T5, NR1100 NMDA receptor (Rattus norvegicus, UniProt P35439).
T5 construct: expressed in transfected cells; host or cells: Xenopus oocytes injected with NR1100 cRNA only
The test can be described thus: NMDA-induced currents, Xenopus oocytes injected with NR1100 cRNA only, Example 1. Format: cell-based.
Excerpt: as §1, §2, §3, §4

The next test relates to NR1111/NR2A. The test can be described thus: NMDA-induced currents of NR1 splice variants, Xenopus oocytes, Example 4. Format: cell-based. On the procedure: Overnight cultures (500 ml) of transformed bacterial cells were prepared in order to grow sufficient quantities for maxiprep isolation of the plasmid CDNA. Maxipreps were done using a Sorvall RC-5B ultracentrifuge, Qiagen columns and cDNA was quantitated with spectrophotometry (OD260 and OD260/ OD280 ratio). The resulting plasmid cDNA was linearized by digestion with an appropriate restriction enzyme that cleaves distal to the cDNA insert (XhoI for NR2A or NotI for NR1100, NR1000, NR1111, NR1011, NR1101, NR1001). […] The samples were stored at −20° C. until use.
In vitro transcription was performed using the Ambion mMessage mMachine kit with T7 (NR1100, NR1000, NR1111, NR1011, NR1101, NR1001) RNA polymerase. The reaction was assembled on ice and allowed to incubate at 37° C. for 1-2 hr. The resulting mRNA was precipitated (reaction termination) using lithium chloride/5 mM EDTA solution and dissolved in RNase-free H2O. The concentration (OD260) and OD260/OD280 ratio (should be more than 1.5) was determined by spectrophotometer. The yield of mRNA was generally 15-30 μg. mRNA was stored at −80° C. until use.
Intracellular recording microelectrodes were fabricated from 100 μl borosilicate glass disposable micropipettes using a 2-step protocol on a standard horizontal Flaming-Brown micropipette puller.

The target in the next test is NR1011/NR2A (Rattus norvegicus, UniProt P35439+Q00959). The arrangement: agonist Emax: dose or concentration left out as unconfirmed.
Chain of NR1011/NR2A (Q00959 23-1464, other chains not shown): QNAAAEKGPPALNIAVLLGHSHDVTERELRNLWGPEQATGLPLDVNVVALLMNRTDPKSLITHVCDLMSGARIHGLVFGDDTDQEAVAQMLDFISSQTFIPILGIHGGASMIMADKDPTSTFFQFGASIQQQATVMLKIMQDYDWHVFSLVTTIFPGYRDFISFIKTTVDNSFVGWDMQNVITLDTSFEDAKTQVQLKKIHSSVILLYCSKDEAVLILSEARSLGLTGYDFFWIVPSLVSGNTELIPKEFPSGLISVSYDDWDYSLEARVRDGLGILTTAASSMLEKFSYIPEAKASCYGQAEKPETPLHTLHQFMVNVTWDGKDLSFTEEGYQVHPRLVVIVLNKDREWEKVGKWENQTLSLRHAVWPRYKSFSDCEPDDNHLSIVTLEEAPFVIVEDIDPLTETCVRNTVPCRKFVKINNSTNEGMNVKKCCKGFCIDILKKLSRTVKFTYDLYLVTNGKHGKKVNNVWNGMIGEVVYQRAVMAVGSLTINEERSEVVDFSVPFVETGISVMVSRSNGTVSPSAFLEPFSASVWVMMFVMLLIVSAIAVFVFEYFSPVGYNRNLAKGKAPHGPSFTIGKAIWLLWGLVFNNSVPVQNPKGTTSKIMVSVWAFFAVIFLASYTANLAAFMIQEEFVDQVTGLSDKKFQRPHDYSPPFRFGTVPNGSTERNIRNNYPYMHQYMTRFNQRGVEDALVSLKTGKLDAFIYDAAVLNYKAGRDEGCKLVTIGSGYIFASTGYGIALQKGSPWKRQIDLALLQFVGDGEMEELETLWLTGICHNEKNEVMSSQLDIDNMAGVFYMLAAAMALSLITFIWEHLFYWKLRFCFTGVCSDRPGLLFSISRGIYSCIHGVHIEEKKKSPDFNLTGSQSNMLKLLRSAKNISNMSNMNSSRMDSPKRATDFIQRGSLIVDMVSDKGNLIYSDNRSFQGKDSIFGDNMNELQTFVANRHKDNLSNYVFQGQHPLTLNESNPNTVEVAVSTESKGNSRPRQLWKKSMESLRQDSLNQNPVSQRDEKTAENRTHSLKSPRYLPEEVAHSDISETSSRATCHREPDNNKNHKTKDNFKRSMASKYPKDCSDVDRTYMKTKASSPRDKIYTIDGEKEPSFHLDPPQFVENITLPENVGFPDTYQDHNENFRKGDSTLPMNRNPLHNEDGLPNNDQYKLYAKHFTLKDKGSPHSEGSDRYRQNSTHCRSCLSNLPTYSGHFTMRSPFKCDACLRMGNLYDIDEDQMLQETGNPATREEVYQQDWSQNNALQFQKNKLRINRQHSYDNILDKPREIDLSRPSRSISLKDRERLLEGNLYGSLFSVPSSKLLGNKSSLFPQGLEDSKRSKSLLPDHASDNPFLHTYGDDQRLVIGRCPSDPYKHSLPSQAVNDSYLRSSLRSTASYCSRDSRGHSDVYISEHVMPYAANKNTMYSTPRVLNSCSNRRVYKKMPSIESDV
A further test deals with NR1000/NR2A (Rattus norvegicus, UniProt P35439+Q00959). Further details: agonist Emax: dose or concentration left out as unconfirmed.

Counter-ions that a name gives are not always drawn. Like-named read-outs stand apart in the source and are kept apart here.

Broadly, the EC50 is the concentration at which the effect is half-maximal.

T1 sequence (P19490 19-907): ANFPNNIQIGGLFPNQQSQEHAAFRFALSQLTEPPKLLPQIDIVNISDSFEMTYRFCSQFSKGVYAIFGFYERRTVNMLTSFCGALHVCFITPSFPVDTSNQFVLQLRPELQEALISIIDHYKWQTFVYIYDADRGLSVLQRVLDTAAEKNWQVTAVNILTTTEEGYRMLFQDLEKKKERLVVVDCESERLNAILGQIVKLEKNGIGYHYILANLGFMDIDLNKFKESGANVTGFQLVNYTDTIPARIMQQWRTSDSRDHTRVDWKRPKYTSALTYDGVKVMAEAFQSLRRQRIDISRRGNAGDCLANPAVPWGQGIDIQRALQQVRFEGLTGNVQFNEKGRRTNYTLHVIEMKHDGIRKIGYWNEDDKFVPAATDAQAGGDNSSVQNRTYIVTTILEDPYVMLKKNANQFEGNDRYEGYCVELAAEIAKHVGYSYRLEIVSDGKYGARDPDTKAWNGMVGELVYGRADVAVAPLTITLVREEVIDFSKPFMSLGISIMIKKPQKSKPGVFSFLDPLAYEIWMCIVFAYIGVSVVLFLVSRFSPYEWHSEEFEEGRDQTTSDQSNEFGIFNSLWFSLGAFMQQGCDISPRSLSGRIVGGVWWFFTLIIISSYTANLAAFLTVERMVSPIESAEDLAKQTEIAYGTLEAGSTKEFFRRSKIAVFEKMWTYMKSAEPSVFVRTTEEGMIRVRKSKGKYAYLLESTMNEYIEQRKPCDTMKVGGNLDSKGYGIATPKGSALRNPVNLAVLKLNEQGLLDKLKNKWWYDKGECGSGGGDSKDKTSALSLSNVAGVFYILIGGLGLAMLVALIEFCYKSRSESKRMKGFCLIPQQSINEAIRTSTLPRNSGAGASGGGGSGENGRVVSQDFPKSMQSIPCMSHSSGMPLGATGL
T3 sequence (P42260 32-908): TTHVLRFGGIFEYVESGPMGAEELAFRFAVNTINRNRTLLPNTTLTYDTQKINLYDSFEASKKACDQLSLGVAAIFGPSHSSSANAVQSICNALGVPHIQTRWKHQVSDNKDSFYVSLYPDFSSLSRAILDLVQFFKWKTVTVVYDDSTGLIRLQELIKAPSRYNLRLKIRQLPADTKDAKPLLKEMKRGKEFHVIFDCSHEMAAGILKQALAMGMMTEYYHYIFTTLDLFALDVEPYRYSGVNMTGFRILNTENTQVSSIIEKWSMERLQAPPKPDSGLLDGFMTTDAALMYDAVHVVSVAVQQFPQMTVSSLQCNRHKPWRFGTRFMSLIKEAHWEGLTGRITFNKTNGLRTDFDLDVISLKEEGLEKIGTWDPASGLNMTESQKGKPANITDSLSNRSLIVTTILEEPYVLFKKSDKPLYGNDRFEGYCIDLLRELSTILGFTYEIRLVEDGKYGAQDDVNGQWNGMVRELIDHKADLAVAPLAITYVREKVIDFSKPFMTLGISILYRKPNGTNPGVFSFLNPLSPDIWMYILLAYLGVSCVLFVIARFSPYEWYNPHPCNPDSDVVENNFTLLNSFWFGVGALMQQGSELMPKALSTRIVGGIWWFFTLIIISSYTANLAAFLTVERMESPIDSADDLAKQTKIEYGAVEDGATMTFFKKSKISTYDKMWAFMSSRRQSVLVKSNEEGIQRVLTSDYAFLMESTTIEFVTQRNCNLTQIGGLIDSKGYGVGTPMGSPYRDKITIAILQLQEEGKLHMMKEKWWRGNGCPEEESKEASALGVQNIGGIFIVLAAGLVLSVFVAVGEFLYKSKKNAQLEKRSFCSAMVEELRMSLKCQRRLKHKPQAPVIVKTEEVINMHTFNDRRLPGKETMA
T2 sequence (P19492 23-888): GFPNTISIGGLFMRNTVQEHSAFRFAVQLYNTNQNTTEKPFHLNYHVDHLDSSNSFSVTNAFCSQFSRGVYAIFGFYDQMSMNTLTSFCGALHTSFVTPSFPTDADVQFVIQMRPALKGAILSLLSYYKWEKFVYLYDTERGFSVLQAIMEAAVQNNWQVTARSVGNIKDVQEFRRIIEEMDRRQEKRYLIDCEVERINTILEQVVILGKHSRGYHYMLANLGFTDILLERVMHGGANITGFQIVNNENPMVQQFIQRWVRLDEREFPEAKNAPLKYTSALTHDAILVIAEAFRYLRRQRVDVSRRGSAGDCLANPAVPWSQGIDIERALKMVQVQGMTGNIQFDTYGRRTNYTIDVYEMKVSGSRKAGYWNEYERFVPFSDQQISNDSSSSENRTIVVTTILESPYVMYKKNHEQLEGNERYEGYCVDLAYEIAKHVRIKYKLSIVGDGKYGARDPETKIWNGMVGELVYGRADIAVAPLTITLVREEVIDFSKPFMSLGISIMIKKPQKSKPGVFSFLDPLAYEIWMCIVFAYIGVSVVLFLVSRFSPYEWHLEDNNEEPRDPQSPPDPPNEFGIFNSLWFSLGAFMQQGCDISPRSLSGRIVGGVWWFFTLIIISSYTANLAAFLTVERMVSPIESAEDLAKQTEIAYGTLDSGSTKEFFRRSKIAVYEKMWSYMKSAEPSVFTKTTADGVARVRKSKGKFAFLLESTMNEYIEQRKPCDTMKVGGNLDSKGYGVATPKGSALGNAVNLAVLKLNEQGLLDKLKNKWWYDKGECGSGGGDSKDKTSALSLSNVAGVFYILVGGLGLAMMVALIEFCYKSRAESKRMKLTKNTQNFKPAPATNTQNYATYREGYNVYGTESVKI

`CC(=O)[C@H]1CC[C@H]2[C@@H]3CC[C@@H]4C[C@H](OS(=O)(=O)O)CC[C@]4(C)[C@H]3CC[C@]12C` [3α5βS, 3α5β-pregnanolone sulfate]: the “Percentage change in kainate response” value at GluR1 AMPA receptor is recorded as −47 ± 12(3) %; at GluR3 AMPA receptor it was −63 ± 8(4) %; on GluR6 kainate receptor it was −34 ± 5(7) %. Besides, the EC50 in test [1] came out at 41 µM; at NR1100 NMDA receptor, 57 µM. Also, the “Percentage change in NMDA response” value in test [1] (100 μM NMDA) was −64 ± 3(7) %. For the same compound, the “difference in percentage inhibition between NR1011/NR2A and NR1111/NR2A” value in the test with NR1111/NR2A (100 μM 3α5βS) is on record as 5%. The results for the “3α5βS Emax” value on NR1011/NR2A (splice variant 011 /NR2A) and at NR1000/NR2A (splice variant 000 /NR2A) were −0.86 ± 0.04 and −0.89 ± 0.01, respectively. Moreover, the results for the “3α5βS nHill” value on NR1011/NR2A (splice variant 011 /NR2A) and at NR1000/NR2A (splice variant 000 /NR2A) were 0.96 ± 0.06 and 0.98 ± .03, respectively.
With `CN[C@H](CC(=O)O)C(=O)O` [NMDA, N-methyl-D-aspartate], the “NMDA Emax (normalized to 100 μM NMDA response)” value in test [1] (NR1100+NR2A, +100 μM 3α5βS) is given as 0.35; in test [1] (NR1100+NR2A, +100 μM PS) it was 3.21; in test [1] (NR1100+NR2A, control) it was 1.14. The “NMDA nH” value in test [1] (NR1100+NR2A, +100 μM 3α5βS) came out at 1.66; in test [1] (NR1100+NR2A, +100 μM PS), 1.54; in test [1] (NR1100+NR2A, control), 1.43. For the same compound, the EC50 is 15 µM in test [1] (read-out: NMDA EC50, NR1100+NR2A, +100 μM 3α5βS) and 30 µM in test [1] (read-out: NMDA EC50, NR1100+NR2A, +100 μM PS). Besides, the “agonist Emax” value is 1.14 ± 0.02 at NR1011/NR2A (NR1011/NR2A, absence of PS); “(1.68 ± 0.06)” at NR1011/NR2A (NR1011/NR2A, presence of PS); 1.20 ± 0.05 on NR1000/NR2A (NR1000/NR2A, absence of PS); “(1.55 ± 0.04)” on NR1000/NR2A (NR1000/NR2A, presence of PS). The “agonist nHill” value at NR1011/NR2A (NR1011/NR2A, absence of PS) is recorded as 1.39 ± 0.07; at NR1011/NR2A (NR1011/NR2A, presence of 100 mM PS), 1.11 ± 0.12; at NR1000/NR2A (NR1000/NR2A, absence of PS) it was 1.31 ± 0.08; at NR1000/NR2A (NR1000/NR2A, presence of 100 mM PS), 1.18 ± 0.05.
Consider pregnenolone sulfate [PS], for which the “PS Emax, percentage change in kainate-induced current” value is on record as −99% on GluR1 AMPA receptor (GluR1, 100 μM kainate) and −90% at GluR3 AMPA receptor (GluR3, 100 μM kainate). The “inhibition of kainate response” value against GluR1 AMPA receptor (GluR1, 200 μM PS) was 85±4%; against GluR3 AMPA receptor (GluR3, 200 μM PS), 81±3%; against GluR6 kainate receptor (GluR6, 500 μM PS), 64±2%. In addition, the “reduction of kainate Imax” value on GluR1 AMPA receptor (GluR1, PS 100 μM) is 83%; on GluR3 AMPA receptor (GluR3, PS 100 μM) it was 71%; on GluR6 kainate receptor (GluR6, PS 100 μM) it was 33%. Moreover, the “inhibition of the response to kainate” value was “over 70%” on GluR1 AMPA receptor (GluR1, steroid 100 μM); “over 70%” against GluR3 AMPA receptor (GluR3, steroid 100 μM); 42% at GluR6 kainate receptor (GluR6, steroid 100 μM). Moreover, the “Percentage change in kainate response” value at GluR1 AMPA receptor (GluR1, steroid 100 μM, 100 μM kainate, −100 mV) is listed as −85 ± 1(8) %; on GluR3 AMPA receptor (GluR3, steroid 100 μM, 100 μM kainate, −100 mV) it was −73 ± 3(8) %; at GluR6 kainate receptor (GluR6, steroid 100 μM, 10 μM kainate, −100 mV) it was −42 ± 3(8) %. In addition, at GluR6 kainate receptor (GluR6, 10 μM kainate), the “PS nH, inhibition of kainate-induced current” value was 0.29. The “Percentage change in NMDA response” value in test [1] (100 μM NMDA) is reported as “+281 ± 27(7) %”. The “maximum enhancement of NMDA response” value in test [1] (NR1100+NR2A, 100 μM NMDA) was 343%. The “steroid Emax (NMDA-induced current relative to control)” value in test [1] (NR1100+NR2A, 100 μM NMDA) worked out at 4.43; at NR1100 NMDA receptor (NR1100 cRNA only, 300 μM NMDA), 2.14. Moreover, the “maximum potentiation of NMDA induced current” value at NR1100 NMDA receptor (NR1100 cRNA only) was found to be 114%. The “difference in mrc between NR1011/NR2A and NR1111/NR2A” value is given as 1.2 fold with NR1111/NR2A; 1.8 fold in the test on NR1111/NR2A (100 μM PS, pH 6.5); 1.6 fold with NR1111/NR2A (100 μM PS, pH 7.5). The “difference in percentage potentiation between NR1011/NR2A and NR1111/NR2A” value with NR1111/NR2A (100 μM PS, pH 7.5) is on record as 106%; in the test with NR1111/NR2A (100 μM PS, pH 8.5) it was 91%. Also, the results for the “Maximum potentiation of NMDA-induced current by PS” value at NR1011/NR2A (NR1011/NR2A) and on NR1000/NR2A (NR1000/NR2A) were 2.14±0.17 fold and 2.14±0.08 fold, respectively. The “PS Emax” value on NR1011/NR2A (NR1011/NR2A) was 1.14 ± 0.17; on NR1000/NR2A (NR1000/NR2A), 1.14 ± 0.08. The “PS nHill” value is reported as 1.18 ± 0.18 at NR1011/NR2A (NR1011/NR2A) and 1.31 ± 0.06 at NR1000/NR2A (NR1000/NR2A).
